Laboratory results reported in patent publication US11078215B2, “Crystalline forms of lorlatinib maleate” (Pfizer Inc., priority 2016, dated 2021).
Where a name gives a salt, the structure may show the parent alone. One block for each compound: values may come before it.

Experiments:
[1] = Slurry experiments, thermodynamic stability of lorlatinib maleate hydrate (Form 2) in a variety of solvent systems; type: physicochemical
Protocol: The thermodynamic stability of Form 2 was further assessed in variety of solvent systems at temperatures of 5° C. to 40° C. as shown in Table 11. Suspensions of Form 2 were prepared under the indicated conditions and equilibrated for 2 weeks. Resultant solids were analyzed by PXRD. […] Formation of new materials in ethanol and methanol is believed to be a solvated form.

[2] = Physical stability of Form 1 drug product vs. acetic acid solvate drug product; conditions: drug product
Text: The physical stabilities of Form 1 and lorlatinib acetic acid solvate as drug product were investigated under a variety of conditions.

Slurry output, solid form by PXRD ([1]; 1,4-dioxane, Aw 0, 5° C., 2 weeks): Form 2 | Slurry output, solid form by PXRD ([1]; 1,4-dioxane, Aw 0, 40° C., 2 weeks): Form 2 | Slurry output, solid form by PXRD ([1]; 1,4-dioxane, Aw 0, RT, 2 weeks): Form 2 | Slurry output, solid form by PXRD ([1]; EtOAc, Aw 0, 5° C., 2 weeks): Form 2 | Slurry output, solid form by PXRD ([1]; EtOAc, Aw 0, 40° C., 2 weeks): Form 2 | Slurry output, solid form by PXRD ([1]; EtOAc, Aw 0, RT, 2 weeks): Form 2 | Slurry output, solid form by PXRD ([1]; EtOAc/water, Aw 0.1, 5° C., 2 weeks): Form 2 | Slurry output, solid form by PXRD ([1]; EtOAc/water, Aw 0.1, 40° C., 2 weeks): Form 2 | Slurry output, solid form by PXRD ([1]; EtOAc/water, Aw 0.1, RT, 2 weeks): Form 2 | Slurry output, solid form by PXRD ([1]; EtOAc/water, Aw 0.3, 5° C., 2 weeks): Form 2 | Slurry output, solid form by PXRD ([1]; EtOAc/water, Aw 0.3, 40° C., 2 weeks): Form 2 | Slurry output, solid form by PXRD ([1]; EtOAc/water, Aw 0.3, RT, 2 weeks): Form 2 | Slurry output, solid form by PXRD ([1]; EtOAc/water, Aw 0.75, 5° C., 2 weeks): Form 2 | Slurry output, solid form by PXRD ([1]; EtOAc/water, Aw 0.75, 40° C., 2 weeks): Form 2 | Slurry output, solid form by PXRD ([1]; EtOAc/water, Aw 0.75, RT, 2 weeks): Form 2 | Slurry output, solid form by PXRD ([1]; Ethanol, Aw 0, 5° C., 2 weeks): Form 2 | Slurry output, solid form by PXRD ([1]; Ethanol, Aw 0, 40° C., 2 weeks): solvate | Slurry output, solid form by PXRD ([1]; MeOAc, Aw 0, 5° C., 2 weeks): Form 2 | Slurry output, solid form by PXRD ([1]; MeOAc, Aw 0, 40° C., 2 weeks): Form 2 | Slurry output, solid form by PXRD ([1]; MeOAc, Aw 0, RT, 2 weeks): Form 2 | Slurry output, solid form by PXRD ([1]; TFE, Aw 0, 5° C., 2 weeks): Form 2 | Slurry output, solid form by PXRD ([1]; TFE, Aw 0, 40° C., 2 weeks): amorphous | Slurry output, solid form by PXRD ([1]; TFE, Aw 0, RT, 2 weeks): Form 2 | Slurry output, solid form by PXRD ([1]; acetone, Aw 0, 5° C., 2 weeks): Form 2 | Slurry output, solid form by PXRD ([1]; acetone, Aw 0, 40° C., 2 weeks): Form 2 | Slurry output, solid form by PXRD ([1]; acetone, Aw 0, RT, 2 weeks): Form 2 | Slurry output, solid form by PXRD ([1]; acetone/water, Aw 0.1, 5° C., 2 weeks): Form 2 | Slurry output, solid form by PXRD ([1]; acetone/water, Aw 0.1, 40° C., 2 weeks): Form 2 | Slurry output, solid form by PXRD ([1]; acetone/water, Aw 0.1, RT, 2 weeks): Form 2 | Slurry output, solid form by PXRD ([1]; acetone/water, Aw 0.3, 5° C., 2 weeks): Form 2 | Slurry output, solid form by PXRD ([1]; acetone/water, Aw 0.3, 40° C., 2 weeks): Form 2 | Slurry output, solid form by PXRD ([1]; acetone/water, Aw 0.3, RT, 2 weeks): Form 2 | Slurry output, solid form by PXRD ([1]; acetone/water, Aw 0.75, 5° C., 2 weeks): Form 2 | Slurry output, solid form by PXRD ([1]; acetone/water, Aw 0.75, 40° C., 2 weeks): Form 2 | Slurry output, solid form by PXRD ([1]; acetone/water, Aw 0.75, RT, 2 weeks): Form 2 | Slurry output, solid form by PXRD ([1]; acetone/water, Aw 0.9, 5° C., 2 weeks): Form 2 | Slurry output, solid form by PXRD ([1]; acetone/water, Aw 0.9, RT, 2 weeks): Form 2 | Slurry output, solid form by PXRD ([1]; acetonitrile, Aw 0, 5° C., 2 weeks): Form 2 | Slurry output, solid form by PXRD ([1]; acetonitrile, Aw 0, 40° C., 2 weeks): Form 2 | Slurry output, solid form by PXRD ([1]; acetonitrile, Aw 0, RT, 2 weeks): Form 2 | Slurry output, solid form by PXRD ([1]; methanol, Aw 0, 5° C., 2 weeks): Form 2 | Slurry output, solid form by PXRD ([1]; methanol/water, Aw 0.1, 5° C., 2 weeks): Form 2 | Slurry output, solid form by PXRD ([1]; methanol/water, Aw 0.1, 40° C., 2 weeks): solvate | Slurry output, solid form by PXRD ([1]; methanol/water, Aw 0.1, RT, 2 weeks): Form 2 | Slurry output, solid form by PXRD ([1]; methanol/water, Aw 0.3, 5° C., 2 weeks): Form 2 | Slurry output, solid form by PXRD ([1]; methanol/water, Aw 0.3, 40° C., 2 weeks): solvate | Slurry output, solid form by PXRD ([1]; methanol/water, Aw 0.3, RT, 2 weeks): Form 2 | Slurry output, solid form by PXRD ([1]; methanol/water, Aw 0.75, 5° C., 2 weeks): Form 2 | Slurry output, solid form by PXRD ([1]; methanol/water, Aw 0.75, 40° C., 2 weeks): Form 2 | Slurry output, solid form by PXRD ([1]; methanol/water, Aw 0.75, RT, 2 weeks): Form 2 | Conversion to Form 1 in slurry (summary) ([1]; variety of solvent systems, 5° C. to 40° C., 2 weeks): No conversion to Form 1 was detected | Thermodynamic stability (summary) ([1]; wide range of water activities and solvent conditions): thermodynamically stable
Structure (SMILES): C[C@H]1Oc2cc(cnc2N)-c2c(nn(C)c2C#N)CN(C)C(=O)c2ccc(F)cc21 [lorlatinib maleate hydrate (Form 2), (10R)-7-amino-12-fluoro-2,10,16-trimethyl-15-oxo-10,15,16,17-tetrahydro-2H-8,4-(metheno)pyrazolo[4,3-h][2,5,11]benzoxadiazacyclotetradecine-3-carbonitrile (PF-06463922) Maleate Hydrate (Form 2)]

impurity (solid phase impurity), physical stability of drug product ([2]; 50° C./75% RH, 2 weeks): ~30% impurity | impurity (solid phase impurity), physical stability of drug product ([2]; 70° C./10% RH, 3 weeks): ~80% impurity | impurity (solid phase impurity), physical stability of drug product ([2]; 70° C./40% RH, 2 weeks): ~80% impurity | impurity (solid phase impurity), physical stability of drug product ([2]; 70° C./75% RH, 1 week): ~80% impurity
Structure (SMILES): CC(=O)O.C[C@H]1Oc2cc(cnc2N)-c2c(nn(C)c2C#N)CN(C)C(=O)c2ccc(F)cc21 [lorlatinib acetic acid solvate, reference compound]
